In assay [1] the test system is HepG2 cells originating from human liver cancer. In words: EPO production in HepG2 cells (EPO ELISA of culture supernatant, 4% oxygen, 48 hrs). It is filed as cell-based. As to conditions: test compound 3 μM, oxygen 4%, non-stimulated state = 100%, read-out: EPO production amount, % of control (3 μM). The gist of the method:
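HepG2 cells in phenol red-free DMEM with 10% fetal serum treated with compound at final 3 μM or 10 μM, 48 h at 4% oxygen. Supernatant EPO by ELISA, expressed as % of untreated control.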
(In general: ELISA stands for enzyme-linked immunosorbent assay.)

Assay [2] concerns K562 cells, human proerythroblast cells. In words: Hemoglobin production in K562 cells (fluorescence of the porphyrin ring). The conditions noted are these: 144 h, test compound 6 μM, 3+3 days, non-stimulated state = 100%, read-out: production amount of hemoglobin, % of control (6 μM). It is filed as cell-based. The gist of the method:
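K562 cells at 1×10^5 cells/mL in RPMI-1640 with 10% FBS, exposed to compound 3 days, medium exchanged, then 3 more days at 37 °C, 5% CO2. Hemoglobin from 3×10^5 cells measured as porphyrin fluorescence after boiling 30 min in 2 M oxalic acid; expressed as % of untreated control.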

With `CC(=O)N1c2ccc(N3CCN(C(=O)C(C)C)CC3)cc2C(Nc2ccc(NS(C)(=O)=O)cc2)CC1C` (centres unmarked) [Compound 111, 1-acetyl-6-[(4-isopropylcarbonyl)piperazino]-4-[(4-methanesulfonylaminophenyl)amino]-2-methyl-1,2,3,4-tetrahydroquinoline], the activity at 3 µM in assay [1] stood at 126%. The activity at 6 µM in assay [2] was determined as 46%.

As to `CC(=O)N1c2ccc(C(=O)N(C)C)cc2C(Nc2ccc(Cl)cc2)CC1C` (centres unmarked) [Compound 113, 1-acetyl-4-[(4-chlorophenyl)amino]-N,N,2-trimethyl-1,2,3,4-tetrahydroquinoline-6-carboxamide], in assay [1], the activity at 3 µM stood at 112%. In addition, in assay [2], the activity at 6 µM stood at 163%.

In the case of `CNC(=O)c1ccc2c(c1)C(Nc1ccc(Cl)cc1)CC(C)N2C(C)=O` (centres unmarked) [Compound 114, 1-acetyl-4-[(4-chlorophenyl)amino]-N,2-dimethyl-1,2,3,4-tetrahydroquinoline-6-carboxamide], in assay [1], the activity at 3 µM was found to be 198%. In addition, in assay [2], the activity at 6 µM was found to be 152%.

`CC(=O)N1c2ccc(-c3nnn[nH]3)cc2C(Nc2ccc(Cl)cc2)CC1C` (centres unmarked) [Compound 119, 1-acetyl-4-[(4-chlorophenyl)amino]-2-methyl-6-(1H-tetrazol-5-yl)-1,2,3,4-tetrahydroquinoline]: the activity at 3 µM in assay [1] was determined as 125%. The activity at 6 µM in assay [2] turned out to be 124%.

In the case of `CCOC(=O)Cc1ccc(NC2CC(C)N(C(C)=O)c3ccc(F)cc32)cc1` (centres unmarked) [Compound 122, 1-acetyl-4-[(4-ethoxycarbonylmethylphenyl)amino]-6-fluoro-2-methyl-1,2,3,4-tetrahydroquinoline], the activity at 3 µM in assay [1] stood at 139%. For the same compound, the activity at 6 µM in assay [2] is 213%.

For the compound `CC(=O)N1c2ccc(F)cc2C(Nc2ccc(CC(N)=O)cc2)CC1C` (centres unmarked) [Compound 124, 1-acetyl-4-[(4-carbamoylmethylphenyl)amino]-6-fluoro-2-methyl-1,2,3,4-tetrahydroquinoline], in assay [1], the activity at 3 µM is 147%. For the same compound, in assay [2], the activity at 6 µM came out at 119%.

For `CC(=O)N1c2ccc(F)cc2C(Nc2ccc(CC(=O)N(C)C)cc2)CC1C` (centres unmarked) [Compound 125, 1-acetyl-4-[4-(N,N-dimethylaminocarbonylmethyl)phenylamino]-6-fluoro-2-methyl-1,2,3,4-tetrahydroquinoline], in assay [1], the activity at 3 µM is 148%. The activity at 6 µM in assay [2] turned out to be 118%.
